Earlier results on 2 compounds are cited in patent US20120121700A1, “PHARMACEUTICAL FORMULATIONS COMPRISING VALGANCICLOVIR” (priority 2010, published 2012).

The conditions of this data set: oral administration; background statement taken from U.S. Pat. No. 6,083,953.

Structures are written as SMILES.

Regarding `Nc1nc(O)c2ncn(COC(CO)CO)c2n1` [gancilcovir, ganciclovir], the “bioavailability when administered orally” value is reported as “poor”. Consider `CC(C)[C@H](N)C(=O)OCC(CO)OCn1cnc2c(=O)[nH]c(N)nc21.Cl` (stereo partly drawn) [Valganciclovir hydrochloride, L-valine, 2-[(2-amino-1,6-dihydro-6-oxo-9H-purin-9-yl)methoxy]-3-hydroxypropyl ester, monohydrochloride], for which the “bioavailability when administered orally” value was “better bioavailability than ganciclovir given orally”.
